From ChEMBL document CHEMBL5107991, “Conversion of oxadiazolo[3,4-b]pyrazines to imidazo[4,5-b]pyrazines via a tandem reduction-cyclization sequence generates new mitochondrial uncouplers” (Bioorg Med Chem Lett, 2022)
Activity calls are given as the source filed them. The rule behind the calls is not given here.

How the values were obtained:
[1] = (§1) Induction of mitochondrial uncoupled respiration in rat L6 myoblasts assessed as increase in oxygen consumption rate at 50 uM measured by Agilent Seahorse XF analyzer; type: functional
L6 = test: as §1; type: functional
[2] = Induction of mitochondrial uncoupled respiration in rat L6 myoblasts assessed as increase in oxygen consumption rate at 10 uM measured by Agilent Seahorse XF analyzer; type: functional
[3] = Induction of mitochondrial uncoupled respiration in rat L6 myoblasts assessed as increase in oxygen consumption rate measured by Agilent Seahorse XF analyzer; type: functional, cell-based

Row | Compound | Activity [1] | Activity [2] | other results
1 | Cc1ccc(Nc2nc3[nH]c(C(F)(F)F)nc3nc2Nc2ccccc2F)cc1 | 50% | – | –
2 | Cn1c(C(F)(F)F)nc2nc(Nc3cc(C(F)(F)F)ccc3F)c(Nc3cc(C(F)(F)F)ccc3F)nc21 | >200% | – | –
3 | Fc1ccccc1Nc1nc2nc(C(F)(F)F)[nH]c2nc1Nc1ccccc1 | 50% | – | –
4 | Cc1ccc(Nc2nc3nc(C(F)(F)F)[nH]c3nc2Nc2ccc(C)cc2)cc1 | – | – | Activity (L6): Active
5 | Fc1ccccc1Nc1nc2nc(C(F)(F)F)[nH]c2nc1Nc1ccccc1F | 150% | 50% | –
6 | Fc1c(Nc2nc3nc(C(F)(F)F)[nH]c3nc2Nc2cccc(C(F)(F)F)c2F)cccc1C(F)(F)F | – | >150% | –
7 | Oc1nc2nonc2nc1Nc1ccc(OC(F)(F)F)cc1 | – | – | EC50 [3]: 4.3 µM
8 | Fc1ccccc1Nc1nc2nc(C(F)(F)F)[nH]c2nc1NC1CCCCC1 | 125% | – | –
9 | Fc1cccc(Nc2nc3[nH]c(C(F)(F)F)nc3nc2Nc2ccccc2F)c1 | 150% | 100% | –
10 | Fc1cccc(Nc2nc3nc(C(F)(F)F)[nH]c3nc2Nc2cccc(F)c2F)c1F | – | >150% | –
11 | Cn1c(C(F)(F)F)nc2nc(Nc3cc(C(F)(F)F)cc(C(F)(F)F)c3)c(Nc3cc(C(F)(F)F)cc(C(F)(F)F)c3)nc21 | >300% | 100% | –
12 | FC(F)(F)c1nc2nc(Nc3ccccc3C(F)(F)F)c(Nc3ccccc3C(F)(F)F)nc2[nH]1 | – | >150% | –
13 | FC(F)(F)c1nc2nc(Nc3ccccc3)c(Nc3ccccc3)nc2[nH]1 | – | – | Activity (L6): Active
14 | Fc1ccc(C(F)(F)F)cc1Nc1nc2nc(C(F)(F)F)[nH]c2nc1Nc1cc(C(F)(F)F)ccc1F | – | 100% | –
15 | FC(F)(F)c1cc(Nc2nc3nc(C(F)(F)F)[nH]c3nc2Nc2cc(C(F)(F)F)cc(C(F)(F)F)c2)cc(C(F)(F)F)c1 | 100% | – | –
